Patent US12139499B2, “Heteroaryl compounds for treating Huntington's disease” (PTC THERAPEUTICS, INC., priority 2018, dated 2024)

test system: Endogenous Huntingtin Protein; test: Endogenous Huntingtin Protein Assay (ELISA-based MSD electrochemiluminescence); assay type: cell-based; conditions: Table 1
Outline: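 Sandwich MSD electrochemiluminescence immunoassay. Capture used MW1 (expanded polyglutamine) or MAB2166 antibody coated at 1 μg/mL overnight at 4 °C. Samples were bound overnight at 4 °C, then a rabbit monoclonal detection antibody and SULFO-TAG anti-rabbit, each at 0.25 μg/mL, were applied for 1 h at room temperature.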

Row | SMILES | IC50
1 | CN(c1nc2nnc(-c3ccc(-c4cn[nH]c4)cc3O)cc2s1)[C@@H]1CCNC[C@H]1F [Compound 365, 2-(6-{[(3R,4R)-3-fluoropiperidin-4-yl](methyl)amino}[1,3]thiazolo[4,5-c]pyridazin-3-yl)-5-(1H-pyrazol-4-yl)phenol] | 100 to 500 nM
2 | Cc1cn2nc(-c3cc(F)c4nc(C5=CCNCC5)sc4c3)cc(C)c2n1 [Compound 46, 6-[4-fluoro-2-(1,2,3,6-tetrahydropyridin-4-yl)-1,3-benzothiazol-6-yl]-2,8-dimethylimidazo[1,2-b]pyridazine] | ≤ 100 nM
3 | Cc1cn2cc(-c3cc4sc(N(C)C5CC(C)(C)NC(C)(C)C5)nc4cn3)nc2c(C)n1 [Compound 296, 6-(6,8-dimethylimidazo[1,2-a]pyrazin-2-yl)-N-methyl-N-(2,2,6,6-tetramethylpiperidin-4-yl)[1,3]thiazolo[4,5-c]pyridin-2-amine] | ≤ 100 nM
4 | Cc1cn2cc(-c3cc4sc(N(C)C5CC(C)(C)NC(C)(C)C5)nc4cn3)cc(C)c2n1 [Compound 88, 6-(2,8-dimethylimidazo[1,2-a]pyridin-6-yl)-N-methyl-N-(2,2,6,6-tetramethylpiperidin-4-yl)[1,3]thiazolo[4,5-c]pyridin-2-amine] | ≤ 100 nM
5 | CN(c1nc2cnc(-c3cc(C#N)c4nn(C)cc4c3)nc2s1)C1CC(C)(C)NC(C)(C)C1 [Compound 123, 2-methyl-5-{2-[methyl(2,2,6,6-tetramethylpiperidin-4-yl)amino][1,3]thiazolo[5,4-d]pyrimidin-5-yl}-2H-indazole-7-carbonitrile] | ≤ 100 nM
6 | Cc1cn2cc(-c3cc4sc(OC5CCNCC5)nc4cn3)cc(C#N)c2n1 [Compound 313, 2-methyl-6-{2-[(piperidin-4-yl)oxy][1,3]thiazolo[4,5-c]pyridin-6-yl}imidazo[1,2-a]pyridine-8-carbonitrile] | 100 to 500 nM
7 | COc1cc(-c2cc(F)c3nc(C4CCNCC4)sc3c2)ccc1F [Compound 191, 4-fluoro-6-(4-fluoro-3-methoxyphenyl)-2-(piperidin-4-yl)-1,3-benzothiazole] | 1000 to 3000 nM
8 | Cn1cc2cc(-c3cc(F)c4nc(C5=CCNCC5)sc4c3)ccc2n1 [Compound 72, 4-fluoro-6-(2-methyl-2H-indazol-5-yl)-2-(1,2,3,6-tetrahydropyridin-4-yl)-1,3-benzothiazole] | 100 to 500 nM
9 | CN(c1nc2nnc(-c3ccc(-c4cn[nH]c4)cc3O)cc2s1)[C@H]1CNC[C@@H]1F [Compound 381, 2-(6-{[(3S,4S)-4-fluoropyrrolidin-3-yl](methyl)amino}[1,3]thiazolo[4,5-c]pyridazin-3-yl)-5-(1H-pyrazol-4-yl)phenol] | 100 to 500 nM
10 | Cc1cn2cc(-c3cc4sc(N(C)C5CCNCC5)nc4cn3)cc(F)c2n1 [Compound 215, 6-(8-fluoro-2-methylimidazo[1,2-a]pyridin-6-yl)-N-methyl-N-(piperidin-4-yl)[1,3]thiazolo[4,5-c]pyridin-2-amine] | ≤ 100 nM
11 | Oc1cc(-c2cn[nH]c2)ccc1-c1cc2sc(N3CCNCC3)nc2nn1 [Compound 334, 2-[6-(piperazin-1-yl)[1,3]thiazolo[4,5-c]pyridazin-3-yl]-5-(1H-pyrazol-4-yl)phenol] | 100 to 500 nM
12 | CN(c1nc2nnc(-c3ccc(-c4cn[nH]c4)cc3O)cc2s1)C1CCN(CCO)CC1 [Compound 399, 2-(6-{[1-(2-hydroxyethyl)piperidin-4-yl](methyl)amino}[1,3]thiazolo[4,5-c]pyridazin-3-yl)-5-(1H-pyrazol-4-yl)phenol] | ≤ 100 nM
13 | CN(c1nc2nnc(-c3ccc(-c4cn[nH]c4)cc3O)cc2s1)C1CC(C)(C)NC(C)(C)C1 [Compound 119, 2-{6-[methyl(2,2,6,6-tetramethylpiperidin-4-yl)amino][1,3]thiazolo[4,5-c]pyridazin-3-yl}-5-(1H-pyrazol-4-yl)phenol] | ≤ 100 nM
14 | Cc1cn2cc(-c3ccc4nc(N(C)C5CC6(C)CCC(C)(C5)N6)sc4n3)cc(C#N)c2n1 [Compound 291, 6-(2-{[(1R,3s,5S)-1,5-dimethyl-8-azabicyclo[3.2.1]octan-3-yl](methyl)amino}[1,3]thiazolo[5,4-b]pyridin-5-yl)-2-methylimidazo[1,2-a]pyridine-8-carbonitrile] | ≤ 100 nM
15 | CC1C=C(c2nc3ccc(-c4ccc5nn(C)cc5c4)cc3s2)CCN1 (centres unmarked) [Compound 67, 6-(2-methyl-2H-indazol-5-yl)-2-(6-methyl-1,2,3,6-tetrahydropyridin-4-yl)-1,3-benzothiazole] | 1000 to 3000 nM
16 | Cc1cn2cc(-c3cc4sc(N(C)C5CC6(C)CCC(C)(C5)N6)nc4cn3)nc2c(C)n1 [Compound 322, N-[(1R,3s,5S)-1,5-dimethyl-8-azabicyclo[3.2.1]octan-3-yl]-6-(6,8-dimethylimidazo[1,2-a]pyrazin-2-yl)-N-methyl[1,3]thiazolo[4,5-c]pyridin-2-amine] | ≤ 100 nM
17 | CN(c1nc2ccc(-c3ccc4nn(C)cc4c3)cc2s1)C1CCNC(C)(C)C1 (centres unmarked) [Compound 155, N-(2,2-dimethylpiperidin-4-yl)-N-methyl-6-(2-methyl-2H-indazol-5-yl)-1,3-benzothiazol-2-amine] | 100 to 500 nM
18 | Cc1cc(-c2ccc3nc(N(C)C4CCNCC4)sc3n2)cc2cn(C)nc12 [Compound 36, 5-(2,7-dimethyl-2H-indazol-5-yl)-N-methyl-N-(piperidin-4-yl)[1,3]thiazolo[5,4-b]pyridin-2-amine] | 100 to 500 nM

Row | SMILES | IC50
19 | Cc1cc(-c2cnc3nc(N(C)C4CCNCC4)sc3c2)cc2cn(C)nc12 [Compound 13, 6-(2,7-dimethyl-2H-indazol-5-yl)-N-methyl-N-(piperidin-4-yl)[1,3]thiazolo[4,5-b]pyridin-2-amine] | 500 to 1000 nM
20 | Cc1cc(-c2nc3ccc(C4=CCNCC4)cc3s2)cc2cn(C)nc12 [Compound 49, 2-(2,7-dimethyl-2H-indazol-5-yl)-6-(1,2,3,6-tetrahydropyridin-4-yl)-1,3-benzothiazole] | 100 to 500 nM
21 | Cc1cn2cc(-c3cnc4nc(N5CCNCC5)sc4n3)cc(F)c2n1 [Compound 174, 6-(8-fluoro-2-methylimidazo[1,2-a]pyridin-6-yl)-2-(piperazin-1-yl)[1,3]thiazolo[4,5-b]pyrazine] | 1000 to 3000 nM
22 | CCCN1CCC(N(C)c2nc3nnc(-c4ccc(-c5cn[nH]c5)cc4O)cc3s2)CC1 [Compound 393, 2-{6-[methyl(1-propylpiperidin-4-yl)amino][1,3]thiazolo[4,5-c]pyridazin-3-yl]-5-(1H-pyrazol-4-yl)phenol] | 1000 to 3000 nM
23 | Cc1cn2cc(-c3ccc4nc(C5CCNCC5)sc4c3)cc(C)c2n1 [Compound 114, 6-(2,8-dimethylimidazo[1,2-a]pyridin-6-yl)-2-(piperidin-4-yl)-1,3-benzothiazole] | ≤ 100 nM
24 | Oc1cc(-c2cn[nH]c2)ccc1-c1cc2sc(N3CCC34CCCNC4)nc2nn1 (centres unmarked) [Compound 363, 2-[6-(1,6-diazaspiro[3.5]nonan-1-yl)[1,3]thiazolo[4,5-c]pyridazin-3-yl]-5-(1H-pyrazol-4-yl)phenol] | ≤ 100 nM
25 | Cn1cc2cc(-c3ccc4nc(C5=CCNCC5)sc4c3)ccc2n1 [Compound 1, 6-(2-methyl-2H-indazol-5-yl)-2-(1,2,3,6-tetrahydropyridin-4-yl)-1,3-benzothiazole] | 100 to 500 nM
26 | Cc1cn2nc(-c3cc(F)c4nc(C5CCN(C)CC5)sc4c3)ccc2n1 [Compound 92, 6-[4-fluoro-2-(1-methylpiperidin-4-yl)-1,3-benzothiazol-6-yl]-2-methylimidazo[1,2-b]pyridazine] | ≤ 100 nM
27 | CN(c1nc2cnc(-c3cc(C#N)c4nn(C)cc4c3)nc2s1)C1CCNCC1 [Compound 193, 2-methyl-5-{2-[methyl(piperidin-4-yl)amino][1,3]thiazolo[5,4-d]pyrimidin-5-yl}-2H-indazole-7-carbonitrile] | ≤ 100 nM
28 | CN(c1nc2ccc(-c3cc(C#N)c4nn(C)cc4c3)nc2s1)C1CC2(C)CCC(C)(C1)N2 [Compound 293, 5-(2-{[(1R,3s,5S)-1,5-dimethyl-8-azabicyclo[3.2.1]octan-3-yl](methyl)amino}[1,3]thiazolo[5,4-b]pyridin-5-yl)-2-methyl-2H-indazole-7-carbonitrile] | ≤ 100 nM
29 | Cc1cn2cc(-c3ccc4nc(C5CCNCC5)sc4c3)ncc2n1 [Compound 169, 2-methyl-6-[2-(piperidin-4-yl)-1,3-benzothiazol-6-yl]imidazo[1,2-a]pyrazine] | 100 to 500 nM
30 | CN(c1nc2ncc(-c3ccc(-c4cn[nH]c4)cc3O)nc2s1)C1CCNCC1 [Compound 274, 2-{2-[methyl(piperidin-4-yl)amino][1,3]thiazolo[4,5-b]pyrazin-6-yl}-5-(1H-pyrazol-yl)phenol] | ≤ 100 nM
31 | Cc1cc(-c2cc3sc(N(C)C4CCNCC4)nc3cn2)cc2cn(C)nc12 [Compound 30, 6-(2,7-dimethyl-2H-indazol-5-yl)-N-methyl-N-(piperidin-4-yl)[1,3]thiazolo[4,5-c]pyridin-2-amine] | 100 to 500 nM
32 | Oc1cc(-c2cn[nH]c2)ccc1-c1cc2sc(N3CC4(CCCNC4)C3)nc2nn1 [Compound 338, 2-[6-(2,6-diazaspiro[3.5]nonan-2-yl)[1,3]thiazolo[4,5-c]pyridazin-3-yl]-5-(1H-pyrazol-4-yl)phenol] | 500 to 1000 nM
33 | CN(c1nc2cnc(-c3cc(F)c4nn(C)cc4c3)cc2s1)C1CC2(C)CCC(C)(C1)N2 [Compound 298, N-[(1R,3s,5S)-1,5-dimethyl-8-azabicyclo[3.2.1]octan-3-yl]-6-(7-fIuoro-2-methyl-2H-indazol-5-yl)-N-methyl[1,3]thiazolo[4,5-c]pyridin-2-amine] | ≤ 100 nM
34 | Cn1cc2cc(-c3cc(F)c4nc(OC5CCNCC5)sc4c3)cc(C#N)c2n1 [Compound 318, 5-{4-fluoro-2-[(piperidin-4-yl)oxy]-1,3-benzothiazol-6-yl}-2-methyl-2H-indazole-7-carbonitrile] | ≤ 100 nM
35 | CN1CC[C@@H]2CN(c3nc4nnc(-c5ccc(-c6cn[nH]c6)cc5O)cc4s3)[C@@H]2C1 [Compound 388, 2-{6-[(1S,6R)-3-methyl-3,8-diazabicyclo[4.2.0]octan-8-yl][1,3]thiazolo[4,5-c]pyridazin-3-yl}-5-(1H-pyrazol-4-yl)phenol] | 100 to 500 nM
